Assay in all cases: growth of human tumour cells (NCI), 48 h
The subject of assay [1] is HCT-116 colon.
The test system of assay [2] is NCI-H23 lung.
Assay [3] has as its system OVCAR-4 ovarian.
In assay [4] the test system is OVCAR-8 ovarian.
Assay [5] concerns PC-3 prostate.
The subject of assay [6] is RPMI-8226 leukemia.
Assay [7] deals with SF-295 CNS.
The test system of assay [8] is SNB-75 CNS.

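Five compound concentrations were applied to cells in 96-well plates for 48 hours; endpoints were derived by simple linear interpolation of the resulting dose-response curve. Definition used: TGI = concentration required for complete inhibition of growth.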

Regarding `COc1cc(C2SCC(=O)N2c2ccccn2)cc(OC)c1OC` (configuration not stated), the TGI in assay [1], in assay [2], in assay [3], in assay [4], in assay [5] and in assay [6] was more than 100 µM throughout. The TGI in assay [7] was more than 100 µM.
For `O=c1cnn(C/C=C/CBr)c(=O)[nH]1`, the TGI in assay [3] is 48 µM; in assay [4], 54 µM; in assay [5] it was 36.4 µM; in assay [6], 49.5 µM; in assay [8], 33.4 µM.
With `O=c1cnn(C2OC(C(O)CO)C(O)C2O)c(=O)[nH]1` (configuration not stated), the TGI in assay [1], in assay [2], in assay [3], in assay [4], in assay [5] and in assay [6] was more than 100 µM throughout. This compound gave a TGI in assay [8] of more than 100 µM.
In the case of `COc1cccc2c1OC(c1ccc(Cl)cc1)C([N+](=O)[O-])=C2` (configuration not stated), the TGI was 2.67 µM in assay [1]; 21.2 µM in assay [2]; 6.2 µM in assay [3]; 10.2 µM in assay [4]; 5.3 µM in assay [5]; 13.4 µM in assay [7].
`OCC1OC(c2cccc3cc(O)c(O)cc23)CC1O` (configuration not stated): the TGI in assay [1], in assay [3], in assay [4], in assay [5], in assay [6] and in assay [7] was more than 100 µM each time. In addition, the TGI in assay [8] is more than 100 µM.
On to `O=C1NC(=O)C(c2c[nH]c3ccccc23)=C1c1cnc[nH]1`, for which the TGI in assay [1], in assay [3], in assay [4], in assay [5], in assay [6] and in assay [7] was more than 100 µM throughout. This compound gave a TGI in assay [8] of more than 100 µM.
As for `CCOC(=O)C1=C(C)N(Cc2ccc(Cl)cc2Cl)C2(O)C=CC(=O)C3C(=O)N(c4ccccc4)C(=O)C132` (configuration not stated), the TGI is more than 100 µM in assay [1]; 3.53 µM in assay [2]; 4.2 µM in assay [3]; 7.89 µM in assay [4]; 3.55 µM in assay [5]; 2.18 µM in assay [6]. In assay [7], the TGI came to 11.2 µM.
On to `COc1ccc(N2C(=O)CC(C3CC(C(C)(C)C)CCC3=O)C2=O)cc1` (configuration not stated), for which the TGI in assay [1], in assay [2], in assay [3], in assay [4], in assay [5] and in assay [6] was more than 100 µM in each case. The TGI in assay [8] is more than 100 µM.
Regarding `CCCCc1c(N(C)C)c(OC(C)=O)c(-c2cn(C)c3ccccc23)oc1=O`, the TGI in assay [1] was 40.9 µM; in assay [2], 56.7 µM; in assay [3] it was more than 100 µM; in assay [5] it was 50.9 µM; in assay [7] it was more than 100 µM; in assay [8] it was 86 µM.
For the compound `CS(=O)(=O)O[C@H]1CN2C[C@@H](O)[C@@H](O)[C@H]2[C@H]1CO`, the TGI in assay [1], in assay [2], in assay [3], in assay [4], in assay [5] and in assay [6] was more than 100 µM throughout. The same compound gave a TGI in assay [7] of more than 100 µM.
As to `CCCCCCCCCC1(N=[N+]=[N-])C(=O)c2ccccc2N(C)C1=O` (configuration not stated), the TGI was 75.2 µM in assay [1]; 97.4 µM in assay [2]; more than 100 µM in assay [3]; more than 100 µM in assay [5]; more than 100 µM in assay [6]; more than 100 µM in assay [7]. Also, the TGI in assay [8] is more than 100 µM.
Regarding `O=Cc1cn(CCCCCCCCCCCCn2cc(C=O)c3ccccc32)c2ccccc12`, the TGI in assay [1], in assay [2], in assay [4], in assay [5] and in assay [7] was more than 100 µM throughout.
Take `NC1CC(=O)c2c(Br)csc21` (configuration not stated): the TGI in assay [1], in assay [4], in assay [5], in assay [6] and in assay [8] was more than 100 µM each time.
For `CCOc1cc2c(OCc3ccccc3)cc3c4cc(OC)c(OC)cc4c[n+](C)c3c2cc1OC`, the TGI is 9.1 µM in assay [2]; more than 100 µM in assay [3]; 5.6 µM in assay [4]; 4.84 µM in assay [5]; more than 29.6 µM in assay [6]; more than 86.3 µM in assay [7]. This compound also showed a TGI in assay [8] of more than 100 µM.
As to `CC(C)(C)OC(=O)N1CCc2[nH][nH]c(=O)c2C1`, the TGI in assay [1], in assay [2], in assay [3], in assay [4], in assay [5] and in assay [6] was more than 100 µM each time. The same compound registered a TGI in assay [7] of more than 100 µM.
As to `CNC(C#N)c1ccc(OC)cc1` (configuration not stated), the TGI in assay [1], in assay [2], in assay [3], in assay [4], in assay [5] and in assay [7] was more than 100 µM in each case.
As for `Nc1ccc2c(c1)N(C(=O)c1cc3cc(NC(=O)c4cc5ccccc5o4)ccc3[nH]1)CC2CCl` (configuration not stated), the TGI in assay [1] was more than 32.2 µM; in assay [2], 0.161 µM; in assay [3], 3.71 µM; in assay [4], 1.45 µM; in assay [5], 12.2 µM; in assay [6], 0.287 µM. The compound also showed a TGI in assay [8] of 0.469 µM.
`CNc1ccc(C(=O)CC(O)CCC(C)C2OC(=O)CC(O)CC(=O)CC(O)CC(O)CC(O)CC(O)CC3(O)CC(O)C(C(=O)NCCN(C)C)C(CC(OC4OC(C)C(O)C(NC(=O)CN5CCN(C)CC5)C4O)/C=C/C=C/C=C/C=C\C=C/C=C/C=C/C2C)O3)cc1` (configuration not stated): the TGI in assay [2], in assay [3], in assay [4], in assay [5], in assay [7] and in assay [8] was more than 100 µM in each case.
With `CCc1cc2c(oc3cc4ccccc4cc32)c(=O)[nH]1`, the TGI in assay [1], in assay [3], in assay [4], in assay [5], in assay [7] and in assay [8] was more than 10 µM each time.

Values taken from PubChem BioAssay (NCI).
